From patent US20250115598A1 (Anaxis Pharma Pty Ltd, priority 2021, published 2025)

Tests used:
human MLKL (full length) = human MLKL (full length) (Homo sapiens (Human), UniProt Q8NB16); test: KINOMEscan binding assay, human MLKL (full length); details: KINOMEscan, Table 21; read-out: Human MLKL (full-length) (KD)
Outline: (§1)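 KINOMEscan competition binding using kinase-tagged T7 phage or HEK-293-produced DNA-tagged protein captured on ligand beads, with eluted protein quantified by qPCR. Compounds were run as an 11-point 3-fold series, top 30,000 nM, in 1% DMSO. Kd was fitted with the Hill equation, slope fixed at −1.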

human RIPK1 = human RIPK1 (Homo sapiens (Human), UniProt Q13546); test: KINOMEscan binding assay, human RIPK1; details: Table 21
human RIPK1, sequence (Q13546 whole entry): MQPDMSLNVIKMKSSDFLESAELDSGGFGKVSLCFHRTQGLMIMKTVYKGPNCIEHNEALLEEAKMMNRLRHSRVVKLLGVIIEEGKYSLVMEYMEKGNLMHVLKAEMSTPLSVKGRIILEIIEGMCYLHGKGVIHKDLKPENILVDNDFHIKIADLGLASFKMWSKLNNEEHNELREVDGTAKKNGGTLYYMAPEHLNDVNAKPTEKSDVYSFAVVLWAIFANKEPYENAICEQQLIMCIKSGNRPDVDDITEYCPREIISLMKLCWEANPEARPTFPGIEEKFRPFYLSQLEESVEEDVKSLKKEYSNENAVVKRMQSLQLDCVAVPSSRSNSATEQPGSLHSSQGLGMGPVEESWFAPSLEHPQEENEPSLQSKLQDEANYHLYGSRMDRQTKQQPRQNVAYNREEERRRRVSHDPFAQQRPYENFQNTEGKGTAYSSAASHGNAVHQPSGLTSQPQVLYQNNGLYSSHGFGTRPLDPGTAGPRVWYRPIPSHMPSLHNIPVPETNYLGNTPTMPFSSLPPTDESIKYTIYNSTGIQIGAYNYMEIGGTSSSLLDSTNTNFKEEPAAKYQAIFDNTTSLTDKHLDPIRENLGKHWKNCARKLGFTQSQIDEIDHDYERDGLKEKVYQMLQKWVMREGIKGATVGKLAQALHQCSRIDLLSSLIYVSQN
Outline: as §1

human RIPK3 = human RIPK3 (Homo sapiens (Human), UniProt Q9Y572); test: KINOMEscan binding assay, human RIPK3; details: Table 21
human RIPK3, sequence (Q9Y572 whole entry): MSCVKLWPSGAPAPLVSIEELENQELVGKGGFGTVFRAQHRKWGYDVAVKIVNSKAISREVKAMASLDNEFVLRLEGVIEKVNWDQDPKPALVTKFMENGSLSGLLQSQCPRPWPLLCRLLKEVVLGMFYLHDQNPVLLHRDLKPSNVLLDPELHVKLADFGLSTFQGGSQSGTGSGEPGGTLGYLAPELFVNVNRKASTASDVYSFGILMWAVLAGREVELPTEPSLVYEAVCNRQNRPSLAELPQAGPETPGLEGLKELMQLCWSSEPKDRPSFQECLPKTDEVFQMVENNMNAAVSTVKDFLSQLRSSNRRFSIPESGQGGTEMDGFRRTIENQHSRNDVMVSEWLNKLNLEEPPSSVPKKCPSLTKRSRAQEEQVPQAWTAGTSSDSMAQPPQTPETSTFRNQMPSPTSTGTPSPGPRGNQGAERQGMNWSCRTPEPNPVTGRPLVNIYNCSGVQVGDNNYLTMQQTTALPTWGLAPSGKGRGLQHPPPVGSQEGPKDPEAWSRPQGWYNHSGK
Outline: as §1

[1] = test system: Immortalised Mouse Dermal Fibroblasts (MDFs); test: Cellular assay: inhibition of TSI induced necroptosis, CellTitre-Glo viability; details: Mus musculus, Fibroblast; MDF, 3 hours TSI cocktail, Table 24; read-out: Inhibition of TSI-induced necroptosis (IC50 cell-based assay) in MDF
Description: Cellular Assay: Screening Compounds for Inhibition of TSI Induced Necroptosis in, 384 Well Plate Format.
• Cell Line ID: Immortalised Mouse Dermal Fibroblasts (MDFs). • Cell Concentration (cells/well): Final cell density is 2200 cells per well. • Cell growth medium: DMEM medium+7.4% Fetal Bovine Serum (FBS). Cells are cultured in Corning 150 cm^2 tissue culture flasks with vented caps at 37° C./10% CO2. • Incubation: Plates were incubated for 30 minutes following addition of compounds and then 3 hours incubation with death stimuli (TSI cocktail) at 37° C./10% CO2 in a humidified incubator. • Compound concentration: 36 μM starting concentration, 1:3 dilution, 10 point • DMSO final concentration (% v/v): 0.3%. Compounds in TSI Cocktail (T: TNF; S: Smac Mimetic; I: IDN-6556) and their Final Concentrations: • rhTNF (100 ng/ml) • Compound a (500 nM)—Smac Mimetic, Tetralogic and SYNthesis Med Chem • IDN-6556 (10 μM)—Selleckchem (S7775)
The cellular assay was carried out according to the following steps: • 1. Each well was prepared by sequential addition of: • a. 40 μL of cell suspension (5.5×10^4 cells/mL) was added to each well to provide a final cell concentration of 2,200 cells per well. • b. After 24 hours, DMSO (control; columns 1-2 and 23-24) or compound in DMSO—addition was performed using acoustic transfer of nL volumes of stock compound to give final test concentrations of 36, 12, 4, 1.3, 0.44, 0.148, 0.049, 0.016, 0.005 and 0.002 μM. All wells were backfilled with DMSO to a final total volume in the well of 100 nL. • c. Following compound/DMSO addition in step (b), Plates were incubated for 30 minutes at 37° C./10% CO2 in a humidified incubator and then 10 μL of 5×TSI cocktail (except to positive controls; columns 2 and 24) was added to each well. • 2. After 3 hours, plate was removed from the 37° C. incubator and equilibrated to room temperature for 15 minutes. • 3. 15 μL of room temperatured CellTitre-Glo2™ (Promega™) was added to each well. • 4. Shook plates for 2 minutes (˜600 rpm) and incubated at room temperature for 15 minutes to allow signal to stabilise. • 5. Read luminescence readout on a plate reader.
Percent viability was calculated for each compound according to equation (2):
[formula] • Wherein RawData is the readout of any cell containing a compound of the invention.
TA is the total activity provided by the luminescence readout from DMSO only wells (columns 2 and 24)=100% viability.
NSA is the non-specific activity provided by DMSO+TSI wells (columns 1 and 23)=0% viability • Curve fitting: 10-point titration curves are fitted with the 4-parameter logistic nonlinear regression model and the IC50 reported is the inflection point of the curve • Analysis: Data was loaded into Dotmatics™ and visualised using the Tibco@ • Spotfire™ software. 10 point titration curves were fitted with the 4 parameter logistic nonlinear regression model and the IC50 reported reflect the inflection point of the curve for curve fitting.
Assay involving the TSI cocktail (T: TNF; S: Smac mimetic; I: IDN-6556): TSI treatment ensures that cells specifically undergo necroptotic cell death. TNF activates the TNF receptor, Smac mimetic directs the signal away from proinflammatory signaling and toward the RIPK1/RIPK3-mediated cell death pathways, and IDN-6556 (Caspase inhibitor) ensures that the apoptotic response is blocked leaving only the programmed necrosis response. The compounds' activity (solution in DMSO) tested in this TSI-induced assay was evaluated by determining the number of viable cells in culture by measuring the amount of ATP present as measured by CelltiterGlo.

human MLKL (full length), sequence (Q8NB16 whole entry): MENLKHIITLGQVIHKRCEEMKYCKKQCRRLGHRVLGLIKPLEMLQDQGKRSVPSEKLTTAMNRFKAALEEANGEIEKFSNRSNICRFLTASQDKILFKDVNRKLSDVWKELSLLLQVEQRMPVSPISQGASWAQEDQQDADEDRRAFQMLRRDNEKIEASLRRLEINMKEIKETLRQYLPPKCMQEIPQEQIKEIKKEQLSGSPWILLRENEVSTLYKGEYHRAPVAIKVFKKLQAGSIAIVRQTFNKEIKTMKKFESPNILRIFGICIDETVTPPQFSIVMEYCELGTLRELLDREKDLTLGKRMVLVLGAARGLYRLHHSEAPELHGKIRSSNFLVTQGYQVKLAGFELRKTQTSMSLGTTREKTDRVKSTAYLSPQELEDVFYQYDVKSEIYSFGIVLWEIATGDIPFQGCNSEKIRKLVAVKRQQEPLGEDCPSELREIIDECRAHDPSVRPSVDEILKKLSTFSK

Structure (SMILES)	Kd (human MLKL (full length)) [µM]	Kd (human RIPK1) [µM]	Kd (human RIPK3) [µM]	IC50 [1] [µM]
Cn1nc(-c2ccc(NS(=O)(=O)C(F)F)c(OCc3ccc(Cl)c(F)c3)c2)c2c(N)ncc(-c3cnn(C4CCOCC4)c3)c21 [Compound 132, N-(4-(4-amino-1-methyl-7-(1-(tetrahydro-2H-pyran-4-yl)-1H-pyrazol-4-yl)-1H-pyrazolo[4,3-c]pyridin-3-yl)-2-((4-chloro-3-fluoro-benzyl)oxy)phenyl)-1,1-difluoromethane-sulfonamide]	< 0.001	> 10	> 10	
Cn1nc(-c2ccc(NS(=O)(=O)C(F)F)cc2OCc2cccc(F)c2)c2c(N)ncc(-c3cnn(C4CCOCC4)c3)c21 [Compound 135, N-(4-(4-amino-1-methyl-7-(1-(tetrahydro-2H-pyran-4-yl)-1H-pyrazol-4-yl)-1H-pyrazolo[4,3-c]pyridin-3-yl)-3-((3-fluorobenzyl)oxy)phenyl)-1,1-difluoro-methanesulfonamide]	< 0.001	> 10	> 10	
CC(n1cc(-c2cnc(N)c3c(-c4ccc(NS(=O)(=O)C(F)F)c(O[C@@H](C)c5ccc(F)cc5)c4)nn(C)c23)cn1)C(F)(F)F (stereo partly drawn) [Compound 142, N-(4-(4-amino-1-methyl-7-(1-(1,1,1-trifluoropropan-2-yl)-1H-pyrazol-4-yl)-1H-pyrazolo[4,3-c]pyridin-3-yl)-2-((S)-1-(4-fluorophenyl)ethoxy)phenyl)-1,1-difluoromethanesulfonamide]	< 0.001	> 10	> 10	
Cn1nc(-c2ccc(NS(=O)(=O)C(F)F)c(OCc3nccs3)c2)c2c(N)ncc(-c3cnn(C4CCOCC4)c3)c21 [Compound 143, N-(4-(4-amino-1-methyl-7-(1-(tetrahydro-2H-pyran-4-yl)-1H-pyrazol-4-yl)-1H-pyrazolo[4,3-c]pyridin-3-yl)-2-(thiazol-2-yl-methoxy)phenyl)-1,1-difluoromethane-sulfonamide]	< 0.001	> 10	> 10	
CC(C)Oc1cc(-c2nn(C)c3c(-c4cnn(C5CCOCC5)c4)cnc(N)c23)ccc1NS(=O)(=O)C(F)F [Compound 144, N-(4-(4-amino-1-methyl-7-(1-(tetrahydro-2H-pyran-4-yl)-1H-pyrazol-4-yl)-1H-pyrazolo[4,3-c]pyridin-3-yl)-2-isopropoxy-phenyl)-1,1-difluoromethane-sulfonamide]	< 0.001	> 10	> 10	
C[C@H](Oc1cc(-c2nn(C)c3c(-c4cnn(C5CCNC(C(F)(F)F)C5)c4)cnc(N)c23)ccc1NS(=O)(=O)C(F)F)c1ccc(F)cc1 (stereo partly drawn) [Compound 149, N-(4-(4-amino-1-methyl-7-(1-(2-(trifluorometh-yl)piperidin-4-yl)-1H-pyrazol-4-yl)-1H-pyrazolo[4,3-c]pyridin-3-yl)-2-((S)-1-(4-fluoro-phenyl)ethoxy)phenyl)-1,1-difluoro-methanesulfonamide]				< 1
Cn1nc(-c2ccc(NS(=O)(=O)C(F)F)c(OCC3CCCCC3)c2)c2c(N)ncc(-c3cnn(C4CCOCC4)c3)c21 [Compound 150, N-(4-(4-amino-1-methyl-7-(1-(tetrahydro-2H-pyran-4-yl)-1H-pyrazol-4-yl)-1H-pyrazolo[4,3-c]pyridin-3-yl)-2-(cyclohexyl-methoxy)phenyl)-1,1-difluoromethane-sulfonamide]	< 0.001	> 10	> 10	
Cn1nc(-c2ccc(NS(=O)(=O)C(F)F)c(OCc3ncco3)c2)c2c(N)ncc(-c3cnn(C4CCOCC4)c3)c21 [Compound 151, N-(4-(4-amino-1-methyl-7-(1-(tetrahydro-2H-pyran-4-yl)-1H-pyrazol-4-yl)-1H-pyrazolo[4,3-c]pyridin-3-yl)-2-(oxazol-2-yl-methoxy)phenyl)-1,1-difluoromethane-sulfonamide]	< 0.001	> 10	> 10	
C[C@H](Oc1cc(-c2nn(C)c3c(-c4cnn(C5CCN(C)C(C)(C)C5)c4)cnc(N)c23)ccc1NS(=O)(=O)C(F)F)c1ccc(Cl)cc1 (stereo partly drawn) [Compound 159, N-(4-(4-amino-1-methyl-7-(1-(1,2,2-trimethylpiperidin-4-yl)-1H-pyrazol-4-yl)-1H-pyrazolo[4,3-c]pyridin-3-yl)-2-((S)-1-(4-chloro-phenyl)ethoxy)phenyl)-1,1-difluoro-methanesulfonamide]	< 0.001	> 10	> 10	
C[C@H](Oc1cc(-c2nn(C)c3c(-c4ccc5[nH]c(=O)n(C)c5c4)cnc(N)c23)ccc1NS(=O)(=O)C(F)F)c1ccc(F)cc1 [Compound 160, (S)-N-(4-(4-amino-1-methyl-7-(3-methyl-2-oxo-2,3-dihydro-1H-benzo[d]imidazol-5-yl)-1H-pyrazolo[4,3-c]pyridin-3-yl)-2-(1-(4-fluorophenyl)ethoxy)phenyl)-1,1-difluoromethanesulfonamide]	< 0.001	> 10	> 10	
C[C@H](Oc1cc(-c2nn(C)c3c(-c4ccc5c(c4)n(C)c(=O)n5C)cnc(N)c23)ccc1NS(=O)(=O)C(F)F)c1ccc(F)cc1 [Compound 161, (S)-N-(4-(4-amino-7-(1,3-dimethyl-2-oxo-2,3-dihydro-1H-benzo[d]imidazol-5-yl)-1-methyl-1H-pyrazolo[4,3-c]pyridin-3-yl)-2-(1-(4-fluorophenyl)ethoxy)phenyl)-1,1-difluoromethanesulfonamide]	< 0.001	> 10	> 10	
C[C@H](Oc1cc(-c2nn(C)c3c(-c4cnn(C5CC(C)(C)N(C)C(C)(C)C5)c4)cnc(N)c23)ccc1NS(=O)(=O)C(F)F)c1ccc(F)cc1 [Compound 162, (S)-N-(4-(4-amino-1-methyl-7-(1-(1,2,2,6,6-pentamethylpiperidin-4-yl)-1H-pyrazol-4-yl)-1H-pyrazolo[4,3-c]pyridin-3-yl)-2-(1-(4-fluorophenyl)ethoxy)phenyl)-1,1-difluoromethanesulfonamide]	< 0.001	> 10	> 10	
C[C@H](Oc1cc(-c2nn(C)c3c(-c4cnn(C5C[C@H]6CNC[C@H]6C5)c4)cnc(N)c23)ccc1NS(=O)(=O)C(F)F)c1ccc(F)cc1 (stereo partly drawn) [Compound 163, N-(4-(4-amino-1-methyl-7-(1-((3aR,6aS)-octahydrocyclo-penta[c]pyrrol-5-yl)-1H-pyrazol-4-yl)-1H-pyrazolo[4,3-c]pyridin-3-yl)-2-((S)-1-(4-fluoropohenyl)eth-oxy)phenyl)-1,1-difluoromethane-sulfonamide]	< 0.001	> 10	> 10	
C[C@H](Oc1cc(-c2nn(C)c3c(-c4cnn(C5C[C@@H]6CN(C)C[C@@H]6C5)c4)cnc(N)c23)ccc1NS(=O)(=O)C(F)F)c1ccc(F)cc1 (stereo partly drawn) [Compound 164, N-(4-(4-amino-1-methyl-7-(1-((3aR,6aS)-2-methyloctahydrocyclo-penta[c]pyrrol-5-yl)-1H-pyrazol-4-yl)-1H-pyrazolo[4,3-c]pyridin-3-yl)-2-((S)-1-(4-fluorophenyl)eth-oxy)phenyl)-1,1-difluoromethane-sulfonamide]	< 0.001	> 10	> 10	
